{"source": "patent US20210355105A1", "about": "“REGULATOR OF NITROGEN-CONTAINING HETEROAROMATIC DERIVATIVES, PREPARATION METHOD THEREFOR AND USE THEREOF” (Jiangsu Hansoh Pharmaceutical Group Co., Ltd., priority 2018, published 2021)", "key": {"[1]": {"biological_target": "T1, SHP-2 full-length protein (Homo sapiens, UniProt Q06124)", "T1 construct": "purchased BPS Bioscience 79330", "T1 sequence (Q06124 1-593)": "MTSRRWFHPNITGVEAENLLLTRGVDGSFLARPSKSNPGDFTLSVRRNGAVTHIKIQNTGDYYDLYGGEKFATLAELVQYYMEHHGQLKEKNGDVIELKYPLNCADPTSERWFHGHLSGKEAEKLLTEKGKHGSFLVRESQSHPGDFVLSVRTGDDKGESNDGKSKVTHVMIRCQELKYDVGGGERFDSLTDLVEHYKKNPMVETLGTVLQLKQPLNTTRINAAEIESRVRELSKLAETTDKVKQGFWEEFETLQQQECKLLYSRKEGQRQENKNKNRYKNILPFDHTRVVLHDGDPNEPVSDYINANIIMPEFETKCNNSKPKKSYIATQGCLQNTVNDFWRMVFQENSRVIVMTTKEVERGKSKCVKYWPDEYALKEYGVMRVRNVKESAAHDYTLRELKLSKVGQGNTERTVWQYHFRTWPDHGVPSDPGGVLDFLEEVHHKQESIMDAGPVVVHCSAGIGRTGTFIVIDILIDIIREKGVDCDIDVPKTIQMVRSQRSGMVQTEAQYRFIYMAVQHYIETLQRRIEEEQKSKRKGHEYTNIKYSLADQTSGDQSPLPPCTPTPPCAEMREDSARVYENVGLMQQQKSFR", "test": "Inhibition of SHP-2 kinase activity (Homogeneous Full Length SHP-2 Assay Kit)", "assay_type": "biochemical", "details": "relative IC50, full-length SHP-2 with activating peptide", "method": "The objective of this test is to determine the inhibitory effect of the compounds on SHP-2 full-length protein allosteric activity.\nExperimental method: Homogeneous Full Length SHP-2 Assay Kit (BPS Bioscience, #79330) was used to determine the in vitro SHP-2 activity. First, 18 μL of Master Mix was added to a 96-well low adsorption microplate (NUNC, #267342), i.e., the reaction buffer with a final concentration of 1× comprised 0.5 μM SHP-2 activating Peptide and 5 mM DTT. After centrifugation, 5 μL of test compound/DMSO was added to each well (the final DMSO content was 1%, V/V, the test compound was dissolved in DMSO to 1 mM, a three-fold serial dilution was carried out to obtain ten concentrations, the final concentration of the reaction system ranged from 1 μM to 0.05 nM). SHP-2 was diluted in the 1× reaction buffer to a final concentration of 0.06 nM, and the resulting solution was added to the reaction microplate (2 μL per well). Full activity control (compound only with DMSO) and full inhibition control (no SHP-2) were set up on the reaction plate. After centrifugation, the reaction mixture was incubated at room temperature for 60 minutes.\nAfter completion of the incubation, 25 μL of Substrate solution, which comprised Substrate with a final concentration of 10 μM and 5 mM DTT, was added to each well. After centrifugation, the reaction mixture was incubated at room temperature for 30 minutes. After completion of the reaction, readings were measured on the Synergy H1 full-function microplate reader (BioTek) (excitation wavelength: 340 nm, emission wavelength: […], gain value: 75).\nThe IC50 value of the test compounds was calculated by fitting the percentage inhibition rate and data of ten concentrations to a four-parameter nonlinear logic formula with GraphPad prism."}, "NCI-H358 cells": {"system": "NCI-H358 cells", "test": "Proliferation inhibition of NCI-H358 cells (CellTiter-Glo)", "assay_type": "cell-based", "details": "Homo sapiens, NCI-H358, 72 h; 3 days incubation", "method": "Experimental method: 3000 cells (90 μL of cell suspension) were inoculated to each well of a 96-well cell culture plate (Corning, #3610). The culture plate was incubated in an incubator overnight (37° C., 5% CO2). On the next day, 10 μL of gradient dilutions of the test compound solution (the final DMSO content was 0.2%, V/V, the final concentration of the reaction system ranged from 10 μM to 4.5 nM) was added to each well of the culture plate. At the same time, full activity control (compound only with DMSO) and full inhibition control (no cells) were set up on the reaction plate. The culture plate was incubated in the incubator for 3 days (37° C., 5% CO2).\nAfter completion of the incubation, 50 μL of CellTiter-Glo reagent was added to each well of the cell culture plate, which was left to stand at room temperature for 10 minutes. The chemiluminescence signal value was measured in the Synergy H1 full-function microplate reader (BioTek). […] The IC50 value of the test compounds was calculated by fitting the percentage inhibition rate and data of eight concentrations to a four-parameter nonlinear logic formula with GraphPad prism.\nThe IC50 value was calculated by fitting the data of different concentrations and corresponding percentage inhibition rates to a four-parameter nonlinear logic formula with GraphPad prism."}, "[2]": {"test": "Pharmacokinetics assay in rats, single intravenous injection", "assay_type": "in vivo", "details": "male SD rats", "method": "SD rats were used as test animals.\n(§1) The solution was subjected to ultrasound to obtain a clear solution. The solution was filtered with a 0.22 μm water filter, and the filtrate was the formulation for intravenous administration (i.v.). The concentration was 0.2 mg/mL.\nAfter an overnight fast, male SD rats (3 rats per group) were administered intravenously with the test compounds at an administration dose of 1 mg/kg and an administration volume of 5 mL/kg.\n(§2) 0.2 mL of blood was taken from jugular vein before administration and at 0 minute, 5 minutes, 15 minutes, 0.5 hour, 1.0 hour, 2.0 hours, 4.0 hours, 8.0 hours and 24.0 hours after administration. The blood samples were stored in EDTA-2K tubes, and centrifuged for 6 minutes at 6000 rpm, at 4° C. to separate the blood plasma. The plasma samples were stored at −80° C. The rats were fed four hours after administration."}, "[3]": {"test": "Pharmacokinetics assay in mice, single intravenous injection", "assay_type": "in vivo", "details": "male Balb/c mice", "method": "Balb/c mice were used as test animals.\nas §1\nAfter an overnight fast, male Balb/c mice were administered intravenously with the test compounds at an administration dose of 1 mg/kg and an administration volume of 5 mL/kg.\nas §2, with “Blood” for “0.2 mL of blood”, “taken” for “taken from jugular vein”, “mice” for “rats”"}, "[4]": {"details": "printed in the i.v. 1 mg/kg table"}, "[5]": {"details": "mouse, iv, i.v. 1 mg/kg, plasma"}}}
{"smiles": "Nc1nccc(Sc2cnc(N3CCC4(CC=C(C5CC5)[C@H]4N)CC3)cn2)c1Cl", "note": "[Example 144, (S)-8-(5-((2-amino-3-chloropyridin-4-yl)thio)pyrazin-2-yl)-2-cyclopropyl-8-azaspiro[4.5]dec-2-en-1-amine]", "values": [{"measurement": "IC50", "setting": "[1]", "value": 1.48, "unit": "nM"}, {"measurement": "IC50", "setting": "NCI-H358 cells", "value": 9.19, "unit": "nM"}]}
{"smiles": "Cc1nc(N2CCC3(CC2)Cc2ncsc2[C@H]3N)c(CO)nc1Sc1ccnc(N)c1Cl", "note": "[Example 171, (S)-(6-((2-amino-3-chloropyridin-4-yl)thio)-3-(6-amino-4,6-dihydrospiro[cyclopenta[d]thiazole-5,4′-piperidin]-1′-yl)-5-methylpyrazin-2-yl)methanol]", "values": [{"measurement": "IC50", "setting": "[1]", "value": 1.73, "unit": "nM"}, {"measurement": "IC50", "setting": "NCI-H358 cells", "value": 11.9, "unit": "nM"}]}
{"smiles": "Nc1nc(N2CCC3(CC2)Cc2ncsc2[C@H]3N)c(F)nc1Sc1ccnc(N)c1Cl", "note": "[Example 181, (S)-1′-(6-amino-5-((2-amino-3-chloropyridin-4-yl)thio)-3-fluoropyrazin-2-yl)-4,6-dihydrospiro[cyclopenta[d]thiazole-5,4′-piperidin]-6-amine]", "values": [{"measurement": "IC50", "setting": "[1]", "value": 3.07, "unit": "nM"}, {"measurement": "IC50", "setting": "NCI-H358 cells", "value": 46.5, "unit": "nM"}]}
{"smiles": "Nc1nc(N2CCC3(CC2)Cc2ccccc2[C@H]3N)c(F)nc1Sc1ccnc(N)c1Cl", "note": "[Example 179, (S)-1′-(6-amino-5-((2-amino-3-chloropyridin-4-yl)thio)-3-fluoropyrazin-2-yl)-1,3-dihydrospiro[indene-2,4′-piperidin]-1-amine]", "values": [{"measurement": "F", "setting": "[2]; [4]", "value": 118, "unit": "%"}, {"measurement": "AUC(0-inf)", "setting": "[2]; rat, iv, i.v. 1 mg/kg, plasma", "value": 613, "unit": "ng·h/mL"}, {"measurement": "C0", "setting": "[2]; rat, iv, i.v. 1 mg/kg, plasma", "value": 311, "unit": "ng/mL"}, {"measurement": "MRT", "setting": "[2]; rat, iv, i.v. 1 mg/kg, plasma", "value": 4.26, "unit": "h"}, {"measurement": "clearance", "setting": "[2]; rat, iv, i.v. 1 mg/kg, plasma", "value": 27.2, "unit": "mL/min/kg"}, {"measurement": "half-life", "setting": "[2]; rat, iv, i.v. 1 mg/kg, plasma", "value": 3.35, "unit": "h"}, {"measurement": "Vd", "setting": "[2]; rat, iv, i.v. 1 mg/kg, plasma, read-out: Vss", "value": 7, "unit": "L/kg"}, {"measurement": "IC50", "setting": "[1]", "value": 1.75, "unit": "nM"}, {"measurement": "IC50", "setting": "NCI-H358 cells", "value": 20.9, "unit": "nM"}, {"measurement": "F", "setting": "[3]; [4]", "value": 71, "unit": "%"}, {"measurement": "AUC(0-inf)", "setting": "[3]; [5]", "value": 736, "unit": "ng·h/mL"}, {"measurement": "C0", "setting": "[3]; [5]", "value": 264, "unit": "ng/mL"}, {"measurement": "MRT", "setting": "[3]; [5]", "value": 9.04, "unit": "h"}, {"measurement": "clearance", "setting": "[3]; [5]", "value": 22.6, "unit": "mL/min/kg"}, {"measurement": "half-life", "setting": "[3]; [5]", "value": 7.74, "unit": "h"}, {"measurement": "Vd", "setting": "[3]; mouse, iv, i.v. 1 mg/kg, plasma, read-out: Vss", "value": 12.3, "unit": "L/kg"}]}
